Literature values in US20040127531A1, “Adhesive coated sheet for dermal delivery of a selective cyclooxygenase-2 inhibitor” (priority 2002, published 2004).

Experiments:
COX-2 = target: T1, COX-2 (Homo sapiens, UniProt P35354)
T1 sequence (P35354 18-604): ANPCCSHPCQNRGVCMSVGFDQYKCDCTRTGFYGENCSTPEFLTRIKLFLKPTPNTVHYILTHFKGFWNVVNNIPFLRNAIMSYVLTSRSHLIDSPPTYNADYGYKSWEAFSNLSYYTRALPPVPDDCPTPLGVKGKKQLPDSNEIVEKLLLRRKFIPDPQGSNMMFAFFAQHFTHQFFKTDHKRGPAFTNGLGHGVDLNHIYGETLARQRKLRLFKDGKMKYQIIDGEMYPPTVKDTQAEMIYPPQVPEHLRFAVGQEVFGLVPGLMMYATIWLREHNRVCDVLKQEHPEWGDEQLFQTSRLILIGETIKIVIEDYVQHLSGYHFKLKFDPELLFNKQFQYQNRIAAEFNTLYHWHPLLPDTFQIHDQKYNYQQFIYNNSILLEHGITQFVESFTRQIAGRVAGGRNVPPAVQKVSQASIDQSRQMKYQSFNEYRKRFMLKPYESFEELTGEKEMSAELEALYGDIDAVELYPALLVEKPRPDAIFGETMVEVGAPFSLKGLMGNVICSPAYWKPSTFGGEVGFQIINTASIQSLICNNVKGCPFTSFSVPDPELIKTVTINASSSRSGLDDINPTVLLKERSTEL

COX-1 = COX-1 (Homo sapiens, UniProt P23219)
Sequence of COX-1 (P23219 24-599): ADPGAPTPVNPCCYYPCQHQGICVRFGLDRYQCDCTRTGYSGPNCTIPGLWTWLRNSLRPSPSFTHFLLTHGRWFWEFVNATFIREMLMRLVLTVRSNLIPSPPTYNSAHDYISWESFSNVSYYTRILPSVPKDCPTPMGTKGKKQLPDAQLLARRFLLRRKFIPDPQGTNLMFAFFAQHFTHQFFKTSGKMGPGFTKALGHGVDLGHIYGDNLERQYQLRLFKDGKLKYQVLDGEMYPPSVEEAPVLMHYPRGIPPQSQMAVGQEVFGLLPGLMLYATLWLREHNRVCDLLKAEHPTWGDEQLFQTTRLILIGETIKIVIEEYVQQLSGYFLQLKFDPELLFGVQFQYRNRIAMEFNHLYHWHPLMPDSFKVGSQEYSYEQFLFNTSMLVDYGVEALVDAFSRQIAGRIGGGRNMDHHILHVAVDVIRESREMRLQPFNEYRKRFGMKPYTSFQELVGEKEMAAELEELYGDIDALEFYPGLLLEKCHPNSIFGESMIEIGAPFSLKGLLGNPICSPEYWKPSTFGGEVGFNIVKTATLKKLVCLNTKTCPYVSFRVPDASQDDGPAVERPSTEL

| in vitro inhibitory activity against COX-2 (COX-2) | Structure (SMILES) | in vitro inhibitory activity against COX-1 (COX-1) |
| --- | --- | --- |
| weak | CCC(=O)NS(=O)(=O)c1ccc(-c2c(-c3ccccc3)noc2C)cc1 [Parecoxib, N-[[4-(5-methyl-3-phenylisoxazol-4-yl)phenyl]sulfonyl]propanamide] | weak |
|  | Cc1onc(-c2ccccc2)c1-c1ccc(S(N)(=O)=O)cc1 [valdecoxib, 4-[5-methyl-3-phenylisoxazol-4-yl]benzenesulfonamide] | weak |
